For this test, the target named is T1, GLP-1 receptor (GLP-1R) (Rattus norvegicus, UniProt P32301).
T1 construct: endogenous in cells; host or cells: rat INS-1 cells
T1 sequence (P32301 22-463): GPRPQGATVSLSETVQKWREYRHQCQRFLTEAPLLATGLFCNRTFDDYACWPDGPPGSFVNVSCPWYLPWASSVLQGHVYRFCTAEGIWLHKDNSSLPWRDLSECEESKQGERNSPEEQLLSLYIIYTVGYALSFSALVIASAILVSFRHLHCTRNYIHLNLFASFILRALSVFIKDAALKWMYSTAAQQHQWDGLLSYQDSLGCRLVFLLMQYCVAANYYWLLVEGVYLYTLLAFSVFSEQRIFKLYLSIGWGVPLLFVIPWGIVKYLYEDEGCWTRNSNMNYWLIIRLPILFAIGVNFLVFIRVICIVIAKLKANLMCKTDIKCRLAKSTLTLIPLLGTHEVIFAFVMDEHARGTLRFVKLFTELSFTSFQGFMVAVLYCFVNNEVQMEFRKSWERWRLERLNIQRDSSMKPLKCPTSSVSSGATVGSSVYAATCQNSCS
Nature of the test: GLP-1 receptor binding assay (cellular ELISA). How it is done:
Cells were rinsed with PBS and fixed with 4% paraformaldehyde (Thermo Scientific) for 10 min at room temperature and quenched for 5 min with 2% glycine in PBS, pH 7.5. […] After a 2 h incubation at 37 °C in a final volume of 100 μl, the excess peptides were washed, and the cells were blocked with 5% BSA (BD Biosciences). […] Colorimetric changes were analyzed by reading the absorbance at 450 nm in a SpectraMax M5 (Molecular Device) microplate reader. The peptide concentration was plotted against UV absorbance, and the Kd was calculated using Origin 7.0 software.
Background: An ELISA detects its analyte on a solid surface through an enzyme-linked reagent.
In the case of `CCCCCCCCCCCC(=O)NCCCC[C@H](NC(=O)[C@H](C)NC(=O)[C@H](C)NC(=O)[C@H](CCC(N)=O)NC(=O)CNC(=O)[C@H](CCC(=O)O)NC(=O)[C@H](CC(C)C)NC(=O)[C@H](Cc1ccc(O)cc1)NC(=O)[C@H](CO)NC(=O)[C@H](CO)NC(=O)[C@@H](NC(=O)[C@H](CC(=O)O)NC(=O)[C@H](CO)NC(=O)[C@@H](NC(=O)[C@H](Cc1ccccc1)NC(=O)[C@@H](NC(=O)CNC(=O)[C@H](CCC(=O)O)NC(=O)[C@H](C)NC(=O)[C@@H](N)Cc1c[nH]cn1)[C@@H](C)O)[C@@H](C)O)C(C)C)C(=O)N[C@@H](CCC(=O)O)C(=O)N[C@@H](Cc1ccccc1)C(=O)N[C@H](C(=O)N[C@@H](C)C(=O)N[C@@H](Cc1c[nH]c2ccccc12)C(=O)N[C@@H](CC(C)C)C(=O)N[C@H](C(=O)N[C@@H](CCCCN)C(=O)NCC(=O)N[C@@H](CCCNC(=N)N)C(=O)NCC(=O)O)C(C)C)[C@@H](C)CC` [compound 2], binding was put at a Kd of 39.9 ± 1.27 nM.
`CCCCCCCCCCCCCCCCNC(=O)CC[C@H](NC(=O)[C@H](C)NC(=O)[C@@H](N)Cc1c[nH]cn1)C(=O)NCC(=O)N[C@H](C(=O)N[C@@H](Cc1ccccc1)C(=O)N[C@H](C(=O)N[C@@H](CO)C(=O)N[C@@H](CC(=O)O)C(=O)N[C@H](C(=O)N[C@@H](CO)C(=O)N[C@@H](CO)C(=O)N[C@@H](Cc1ccc(O)cc1)C(=O)N[C@@H](CC(C)C)C(=O)N[C@@H](CCC(=O)O)C(=O)NCC(=O)N[C@@H](CCC(N)=O)C(=O)N[C@@H](C)C(=O)N[C@@H](C)C(=O)N[C@@H](CCCCN)C(=O)N[C@@H](CCC(=O)O)C(=O)N[C@@H](Cc1ccccc1)C(=O)N[C@H](C(=O)N[C@@H](C)C(=O)N[C@@H](Cc1c[nH]c2ccccc12)C(=O)N[C@@H](CC(C)C)C(=O)N[C@H](C(=O)N[C@@H](CCCCN)C(=O)NCC(=O)N[C@@H](CCCNC(=N)N)C(=O)NCC(=O)O)C(C)C)[C@@H](C)CC)C(C)C)[C@@H](C)O)[C@@H](C)O` [compound 9] showed a Kd of 99.74 ± 0.92 nM.
Take `CCCCCCCCNC(=O)CC[C@H](NC(=O)[C@H](C)NC(=O)[C@@H](N)Cc1c[nH]cn1)C(=O)NCC(=O)N[C@H](C(=O)N[C@@H](Cc1ccccc1)C(=O)N[C@H](C(=O)N[C@@H](CO)C(=O)N[C@@H](CC(=O)O)C(=O)N[C@H](C(=O)N[C@@H](CO)C(=O)N[C@@H](CO)C(=O)N[C@@H](Cc1ccc(O)cc1)C(=O)N[C@@H](CC(C)C)C(=O)N[C@@H](CCC(=O)O)C(=O)NCC(=O)N[C@@H](CCC(N)=O)C(=O)N[C@@H](C)C(=O)N[C@@H](C)C(=O)N[C@@H](CCCCN)C(=O)N[C@@H](CCC(=O)O)C(=O)N[C@@H](Cc1ccccc1)C(=O)N[C@H](C(=O)N[C@@H](C)C(=O)N[C@@H](Cc1c[nH]c2ccccc12)C(=O)N[C@@H](CC(C)C)C(=O)N[C@H](C(=O)N[C@@H](CCCCN)C(=O)NCC(=O)N[C@@H](CCCNC(=N)N)C(=O)NCC(=O)O)C(C)C)[C@@H](C)CC)C(C)C)[C@@H](C)O)[C@@H](C)O` [compound 7]: the Kd worked out at 104 ± 3.42 nM.
For the molecule `CCCCCCCCCCCCNC(=O)CC[C@H](NC(=O)[C@H](CC(C)C)NC(=O)[C@H](Cc1ccc(O)cc1)NC(=O)[C@H](CO)NC(=O)[C@H](CO)NC(=O)[C@@H](NC(=O)[C@H](CC(=O)O)NC(=O)[C@H](CO)NC(=O)[C@@H](NC(=O)[C@H](Cc1ccccc1)NC(=O)[C@@H](NC(=O)CNC(=O)[C@H](CCC(=O)O)NC(=O)[C@H](C)NC(=O)[C@@H](N)Cc1c[nH]cn1)[C@@H](C)O)[C@@H](C)O)C(C)C)C(=O)NCC(=O)N[C@@H](CCC(N)=O)C(=O)N[C@@H](C)C(=O)N[C@@H](C)C(=O)N[C@@H](CCCCN)C(=O)N[C@@H](CCC(=O)O)C(=O)N[C@@H](Cc1ccccc1)C(=O)N[C@H](C(=O)N[C@@H](C)C(=O)N[C@@H](Cc1c[nH]c2ccccc12)C(=O)N[C@@H](CC(C)C)C(=O)N[C@H](C(=O)N[C@@H](CCCCN)C(=O)NCC(=O)N[C@@H](CCCNC(=N)N)C(=O)NCC(=O)O)C(C)C)[C@@H](C)CC` [compound 14], the Kd came out at 18.4 ± 2.36 nM.
The molecule `CCCCCCCCCCCCNC(=O)C[C@H](NC(=O)[C@@H](NC(=O)[C@H](CC(C)C)NC(=O)[C@H](Cc1c[nH]c2ccccc12)NC(=O)[C@H](C)NC(=O)[C@@H](NC(=O)[C@H](Cc1ccccc1)NC(=O)[C@H](CCC(=O)O)NC(=O)[C@H](CCCCN)NC(=O)[C@H](C)NC(=O)[C@H](C)NC(=O)[C@H](CCC(N)=O)NC(=O)CNC(=O)[C@H](CCC(=O)O)NC(=O)[C@H](CC(C)C)NC(=O)[C@H](Cc1ccc(O)cc1)NC(=O)[C@H](CO)NC(=O)[C@H](CO)NC(=O)[C@@H](NC(=O)[C@H](CC(=O)O)NC(=O)[C@H](CO)NC(=O)[C@@H](NC(=O)[C@H](Cc1ccccc1)NC(=O)[C@@H](NC(=O)CNC(=O)[C@H](CCC(=O)O)NC(=O)[C@H](C)NC(=O)[C@@H](N)Cc1c[nH]cn1)[C@@H](C)O)[C@@H](C)O)C(C)C)[C@@H](C)CC)C(C)C)C(=O)NCC(=O)N[C@@H](CCCNC(=N)N)C(=O)NCC(=O)O` [compound 20] gave a Kd of 20.1 ± 1.97 nM.
On to `CCCCCCCC(=O)NCCCC[C@H](NC(=O)[C@H](C)NC(=O)[C@H](C)NC(=O)[C@H](CCC(N)=O)NC(=O)CNC(=O)[C@H](CCC(=O)O)NC(=O)[C@H](CC(C)C)NC(=O)[C@H](Cc1ccc(O)cc1)NC(=O)[C@H](CO)NC(=O)[C@H](CO)NC(=O)[C@@H](NC(=O)[C@H](CC(=O)O)NC(=O)[C@H](CO)NC(=O)[C@@H](NC(=O)[C@H](Cc1ccccc1)NC(=O)[C@@H](NC(=O)CNC(=O)[C@H](CCC(=O)O)NC(=O)[C@H](C)NC(=O)[C@@H](N)Cc1c[nH]cn1)[C@@H](C)O)[C@@H](C)O)C(C)C)C(=O)N[C@@H](CCC(=O)O)C(=O)N[C@@H](Cc1ccccc1)C(=O)N[C@H](C(=O)N[C@@H](C)C(=O)N[C@@H](Cc1c[nH]c2ccccc12)C(=O)N[C@@H](CC(C)C)C(=O)N[C@H](C(=O)N[C@@H](CCCCN)C(=O)NCC(=O)N[C@@H](CCCNC(=N)N)C(=O)NCC(=O)O)C(C)C)[C@@H](C)CC` [compound 1], for which the Kd came out at 36.2 ± 0.95 nM.
Then `CCCCCCCCCCCCNC(=O)CC[C@H](NC(=O)[C@H](C)NC(=O)[C@@H](N)Cc1c[nH]cn1)C(=O)NCC(=O)N[C@H](C(=O)N[C@@H](Cc1ccccc1)C(=O)N[C@H](C(=O)N[C@@H](CO)C(=O)N[C@@H](CC(=O)O)C(=O)N[C@H](C(=O)N[C@@H](CO)C(=O)N[C@@H](CO)C(=O)N[C@@H](Cc1ccc(O)cc1)C(=O)N[C@@H](CC(C)C)C(=O)N[C@@H](CCC(=O)O)C(=O)NCC(=O)N[C@@H](CCC(N)=O)C(=O)N[C@@H](C)C(=O)N[C@@H](C)C(=O)N[C@@H](CCCCN)C(=O)N[C@@H](CCC(=O)O)C(=O)N[C@@H](Cc1ccccc1)C(=O)N[C@H](C(=O)N[C@@H](C)C(=O)N[C@@H](Cc1c[nH]c2ccccc12)C(=O)N[C@@H](CC(C)C)C(=O)N[C@H](C(=O)N[C@@H](CCCCN)C(=O)NCC(=O)N[C@@H](CCCNC(=N)N)C(=O)NCC(=O)O)C(C)C)[C@@H](C)CC)C(C)C)[C@@H](C)O)[C@@H](C)O` [compound 8], with 96.7 ± 2.95 nM; and `CCCCCCCCCCCC(=O)NCCCC[C@H](NC(=O)[C@@H](NC(=O)[C@H](CC(C)C)NC(=O)[C@H](Cc1c[nH]c2ccccc12)NC(=O)[C@H](C)NC(=O)[C@@H](NC(=O)[C@H](Cc1ccccc1)NC(=O)[C@H](CCC(=O)O)NC(=O)[C@H](CCCCN)NC(=O)[C@H](C)NC(=O)[C@H](C)NC(=O)[C@H](CCC(N)=O)NC(=O)CNC(=O)[C@H](CCC(=O)O)NC(=O)[C@H](CC(C)C)NC(=O)[C@H](Cc1ccc(O)cc1)NC(=O)[C@H](CO)NC(=O)[C@H](CO)NC(=O)[C@@H](NC(=O)[C@H](CC(=O)O)NC(=O)[C@H](CO)NC(=O)[C@@H](NC(=O)[C@H](Cc1ccccc1)NC(=O)[C@@H](NC(=O)CNC(=O)[C@H](CCC(=O)O)NC(=O)[C@H](C)NC(=O)[C@@H](N)Cc1c[nH]cn1)[C@@H](C)O)[C@@H](C)O)C(C)C)[C@@H](C)CC)C(C)C)C(=O)NCC(=O)N[C@@H](CCCNC(=N)N)C(=O)NCC(=O)O` [compound 5], with 14.3 ± 1.1 nM; and `CCCCCCCCCCCCCCCC(=O)NCCCC[C@H](NC(=O)[C@H](C)NC(=O)[C@H](C)NC(=O)[C@H](CCC(N)=O)NC(=O)CNC(=O)[C@H](CCC(=O)O)NC(=O)[C@H](CC(C)C)NC(=O)[C@H](Cc1ccc(O)cc1)NC(=O)[C@H](CO)NC(=O)[C@H](CO)NC(=O)[C@@H](NC(=O)[C@H](CC(=O)O)NC(=O)[C@H](CO)NC(=O)[C@@H](NC(=O)[C@H](Cc1ccccc1)NC(=O)[C@@H](NC(=O)CNC(=O)[C@H](CCC(=O)O)NC(=O)[C@H](C)NC(=O)[C@@H](N)Cc1c[nH]cn1)[C@@H](C)O)[C@@H](C)O)C(C)C)C(=O)N[C@@H](CCC(=O)O)C(=O)N[C@@H](Cc1ccccc1)C(=O)N[C@H](C(=O)N[C@@H](C)C(=O)N[C@@H](Cc1c[nH]c2ccccc12)C(=O)N[C@@H](CC(C)C)C(=O)N[C@H](C(=O)N[C@@H](CCCCN)C(=O)NCC(=O)N[C@@H](CCCNC(=N)N)C(=O)NCC(=O)O)C(C)C)[C@@H](C)CC` [compound 3], with 33.8 ± 1.21 nM.

By Kd is commonly meant the concentration at which binding is half-saturated. Read a low Kd as higher affinity.

Values taken from article PMC4676015, “Variant fatty acid-like molecules Conjugation, novel approaches for extending the stability of therapeutic peptides” (Scientific Reports, 2015).
